The values that follow come from paper PMC11945486, “TAS1R2/TAS1R3 Single-Nucleotide Polymorphisms Affect Sweet Taste Receptor Activation by Sweeteners: The SWEET Project” (Nutrients, 2025).

Like-named read-outs stand apart in the source and are kept apart here. No end group written: not given here.

The target in this assay is T1, human TAS1R2-WT/TAS1R3-P780A (Homo sapiens, UniProt Q7RTX0+Q8TE23, P780A).
T1 construct: expressed in transfected cells; host or cells: HEK293T stably expressing Gα16gust44
T1 sequence (Q8TE23 20-839): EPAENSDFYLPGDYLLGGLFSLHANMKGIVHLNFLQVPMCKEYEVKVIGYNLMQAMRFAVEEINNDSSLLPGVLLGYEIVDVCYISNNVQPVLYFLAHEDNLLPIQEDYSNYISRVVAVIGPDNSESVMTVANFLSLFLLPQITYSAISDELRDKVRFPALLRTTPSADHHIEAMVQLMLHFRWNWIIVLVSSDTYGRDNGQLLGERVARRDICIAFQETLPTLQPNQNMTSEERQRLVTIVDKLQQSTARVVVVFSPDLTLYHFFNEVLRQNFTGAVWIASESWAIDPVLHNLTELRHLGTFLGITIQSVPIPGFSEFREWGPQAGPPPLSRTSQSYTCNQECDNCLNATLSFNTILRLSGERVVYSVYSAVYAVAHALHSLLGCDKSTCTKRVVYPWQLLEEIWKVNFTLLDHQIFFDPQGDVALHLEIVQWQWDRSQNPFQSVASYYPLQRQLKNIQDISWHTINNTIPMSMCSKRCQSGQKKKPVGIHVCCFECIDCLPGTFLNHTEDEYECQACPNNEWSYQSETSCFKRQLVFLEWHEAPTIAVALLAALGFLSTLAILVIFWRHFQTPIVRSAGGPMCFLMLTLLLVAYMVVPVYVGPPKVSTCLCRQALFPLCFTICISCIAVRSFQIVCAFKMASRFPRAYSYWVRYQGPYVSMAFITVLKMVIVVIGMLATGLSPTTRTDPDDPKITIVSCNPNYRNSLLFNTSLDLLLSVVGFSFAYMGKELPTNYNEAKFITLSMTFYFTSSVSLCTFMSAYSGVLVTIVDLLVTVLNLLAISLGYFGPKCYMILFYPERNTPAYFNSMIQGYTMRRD
T1 sequence (Q7RTX0 21-852 P780A): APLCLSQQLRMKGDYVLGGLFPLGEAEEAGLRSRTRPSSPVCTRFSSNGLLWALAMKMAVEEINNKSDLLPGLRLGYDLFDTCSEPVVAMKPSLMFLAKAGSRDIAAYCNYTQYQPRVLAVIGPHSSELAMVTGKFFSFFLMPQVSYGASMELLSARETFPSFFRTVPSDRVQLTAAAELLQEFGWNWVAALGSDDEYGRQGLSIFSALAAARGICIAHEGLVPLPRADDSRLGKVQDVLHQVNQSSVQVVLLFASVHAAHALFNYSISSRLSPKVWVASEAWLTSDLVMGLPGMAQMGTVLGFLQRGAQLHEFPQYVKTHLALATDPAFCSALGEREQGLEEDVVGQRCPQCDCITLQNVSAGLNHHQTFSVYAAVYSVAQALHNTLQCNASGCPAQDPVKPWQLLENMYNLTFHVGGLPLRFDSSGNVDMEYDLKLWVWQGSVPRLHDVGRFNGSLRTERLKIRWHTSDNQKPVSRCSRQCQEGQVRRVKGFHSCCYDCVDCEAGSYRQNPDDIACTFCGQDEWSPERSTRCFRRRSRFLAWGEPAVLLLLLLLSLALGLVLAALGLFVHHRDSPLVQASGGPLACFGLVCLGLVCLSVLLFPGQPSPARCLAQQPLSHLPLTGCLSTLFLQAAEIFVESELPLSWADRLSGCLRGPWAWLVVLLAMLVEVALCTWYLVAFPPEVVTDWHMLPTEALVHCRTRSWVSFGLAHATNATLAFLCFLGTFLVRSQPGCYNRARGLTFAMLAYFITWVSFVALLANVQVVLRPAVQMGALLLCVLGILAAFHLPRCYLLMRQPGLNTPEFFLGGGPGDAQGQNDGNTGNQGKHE
Briefly: Calcium mobilisation assay, TAS1R2-WT with TAS1R3 variant P780A. It counts as cell-based. The conditions noted are these: for Max ΔF/F0: maximal signal amplitude. From the text:
The coding sequences for TAS1R2 and TAS1R3 were commercially synthesised, and the human codon was optimised for expression in human cells. The coding sequences of human TAS1R2 and TAS1R3 were subcloned and inserted into the mammalian expression vectors pcDNA6/myc-HisA and pcDNA4/myc-HisA (Invitrogen; Thermo Fisher Scientific; Illkirch, France) between the EcoRI and NotI restriction sites, generating the plasmids pcDNA6-TAS1R2 and pcDNA4-TAS1R3, respectively. To increase protein expression in mammalian cells, an upstream start codon was used, which was a sequence called MAX, corresponding to the QBI SP163 element also described in pcDNA4-HisMax (Invitrogen; Thermo Fisher Scientific; Illkirch, France). To measure the expression level of the receptor by immunohistochemistry, we used the FLAG sequence ([…]) in the C-terminal position, which encodes the FLAG tag epitope. SNP variants of TAS1R2 and TAS1R3 were constructed based on […], respectively, using site-directed mutagenesis (Genewiz; Leipzig, Germany).
The HEK293T cells were kindly provided by Jay P. Slack (Givaudan Flavors Corporation; Cincinnati, OH, USA). HEK293T cells stably transfected with Gα16gust44 [43, 67] were seeded in poly-D-lysine-coated clear-bottom black 96-well plates (0.35 × 10^5 cells/well) in high-glucose DMEM supplemented with 2 mM GlutaMAX, 10% dialysed foetal bovine serum with penicillin/streptomycin and G418 (400 μg/mL) at 37 °C and 6.3% CO2 in a humidified atmosphere as previously reported. […] As a negative control, HEK293T cells were mock-transfected with the empty expression vector. After a further 24 h of incubation, the HEK293T cells were washed with C1 buffer (130 mM NaCl, 5 mM KCl, 10 mM HEPES pH 7.4 and 2 mM CaCl2). The 96-well plates containing the cells were then stimulated with sweet-tasting compounds. […] Different concentration ranges were tested depending on the sweet compound injected. The Ca^2+ changes were expressed as fractional changes in fluorescent light intensity: ΔF/F = (F − F0)/F0, where F was the fluorescent light intensity at each point, and F0 was the value of emitted fluorescent light prior to stimulus application. To calculate dose–response relationships, the changes in fluorescence upon stimulus application were averaged, mock-subtracted and baseline-corrected. The dose–response data obtained were adjusted using a 4-parameter logistic equation. The half-maximal effective concentrations (EC50 values) and maximal signal amplitudes were calculated using SigmaPlot software (version 15.0) (Systat Software; San Jose, CA, USA).
For in vitro calcium mobilisation assay performed on hTAS1R2-SNPs, hTAS1R3-SNPs and mTAS1R3-I60T, 6 to 7 concentrations were tested for each sweet compound, plus buffer alone. All concentration–receptor combinations were measured in duplicate, and each experiment was repeated at least 4 times (8 wells/concentration). Results were expressed for each concentration as ΔF/F mean ± SEM and represented as dose–response curves.
Background: Calcium assays in cells follow changes in intracellular calcium, usually with a dye or a luminescent sensor.

`OC[C@H]1O[C@H](O[C@]2(CCl)O[C@H](CCl)[C@@H](O)[C@@H]2O)[C@H](O)[C@@H](O)[C@H]1Cl` [Sucralose]: the “R1 = Variant EC50/WT EC50” value stood at 1.4 and the “Max ΔF/F0” value is 0.76 ± 0.03. Also, the EC50 (in general, the concentration at which the effect is half-maximal) (read-out: EC50) is 149 ± 12 µM.
Consider `C[C@H](CC[C@@H](O[C@@H]1O[C@H](CO[C@@H]2O[C@H](CO)[C@@H](O)[C@H](O)[C@H]2O)[C@@H](O)[C@H](O)[C@H]1O[C@@H]1O[C@H](CO)[C@@H](O)[C@H](O)[C@H]1O)C(C)(C)O)[C@H]1CC[C@@]2(C)[C@@H]3CC=C4[C@@H](CC[C@H](O[C@@H]5O[C@H](CO[C@@H]6O[C@H](CO)[C@@H](O)[C@H](O)[C@H]6O)[C@@H](O)[C@H](O)[C@H]5O)C4(C)C)[C@]3(C)[C@H](O)C[C@]12C` [Mogroside V, mogroside V], for which the “R1 = Variant EC50/WT EC50” value was found to be 0.7 and the “Max ΔF/F0” value is given as 1.13 ± 0.04. The 50% effective concentration (EC50) (read-out: EC50) came out at 22.5 ± 2.2 µM.
On the same counts, the results for `COC(=O)[C@H](Cc1ccccc1)NC(=O)[C@H](CC(=O)O)NCCC(C)(C)C` [Neotame] are 0.8, 0.63 ± 0.02 and 1.03 ± 0.08 µM.
Regarding “brazzein (QDKCKKVYENYPVSKCQLANQCNYDCKLDKHARSGECFYDEKRNLQCICDYCEY; ends and bridges not checked; cysteine pairing not given here; UniProt P56552 1-54, looked up) [sweet-tasting protein obtained by recombinant production using the yeast Pichia pastoris]”, the “R1 = Variant EC50/WT EC50” value amounted to 0.7 and the “Max ΔF/F0” value is 1.06 ± 0.06. Moreover, where the note is “brazzein”, the EC50 was 80.7 ± 14.8 µg/mL.
Turning to `C=C(C)[C@@H]1CC=C(/C=N/O)CC1` [Perillartine, perillartine], the “R1 = Variant EC50/WT EC50” value is 0.9 and the “Max ΔF/F0” value was 1.44 ± 0.20. Moreover, the EC50 (read-out: EC50) was found to be 12.7 ± 5 µM.
On the same counts, the results for `CC1=CC(=O)NS(=O)(=O)O1` [Acesulfame K, acesulfame K] are 0.7, 0.30 ± 0.01 and 421 ± 31 µM.
For `C=C1C[C@@]23CC[C@H]4[C@@](C)(CCC[C@@]4(C)C(=O)O[C@@H]4O[C@H](CO)[C@@H](O)[C@H](O[C@@H]5O[C@H](CO)[C@@H](O)[C@H](O)[C@H]5O)[C@H]4O[C@@H]4O[C@H](CO)[C@@H](O)[C@H](O)[C@H]4O)[C@@H]2CC[C@]1(O[C@@H]1O[C@H](CO)[C@@H](O)[C@H](O[C@@H]2O[C@H](CO)[C@@H](O)[C@H](O)[C@H]2O)[C@H]1O[C@@H]1O[C@H](CO)[C@@H](O)[C@H](O)[C@H]1O)C3` [Rebaudioside M, rebaudioside M], in that order: 0.6, 1.21 ± 0.05 and 23 ± 2.6 µM.
Regarding `O=S(=O)(O)NC1CCCCC1` [Cyclamate, cyclamate], where the note is “read-out: EC50”, the EC50 amounted to 1170 ± 62 µM.
Regarding `COc1ccc(CCC(=O)c2c(O)cc(O[C@@H]3O[C@H](CO)[C@@H](O)[C@H](O)[C@H]3O[C@@H]3O[C@@H](C)[C@H](O)[C@@H](O)[C@H]3O)cc2O)cc1O` [NHDC, neohesperidin dihydrochalcone], the “R1 = Variant EC50/WT EC50” value was 0.9 and the “Max ΔF/F0” value is recorded as 1.50 ± 0.01. The EC50 (read-out: EC50) was 46.4 ± 12.9 µM.
Regarding thaumatin, the “R1 = Variant EC50/WT EC50” value amounted to 0.8 and the “Max ΔF/F0” value is listed as 0.86 ± 0.06.

B1: thaumatin (protein)
chain: ATFEIVNRCSYTVWAAASKGDAALDAGGRQLNSGESWTINVEPGTKGGKIWARTDCYFDDSGSGICKTGDCGGLLRCKRFGRPPTTLAEFSLNQYGKDYIDISNIKGFNVPMDFSPTTRGCRGVRCAADIVGQCPAKLKAPGGGCNDACTVFQTSEYCCTTGKCGPTEYSRFFKRLCPDAFSYVLDKPTTVTCPGSSNYRVTFCPTA
modifications: Eight disulfides
notes: sweet-tasting plant protein, E957
With B1, the EC50 (read-out: EC50) was 7.8 ± 1.3 µM.
